Data taken from article PMC4816213 (Bioorganic & medicinal chemistry letters, 2015).
pKi: −log10 of the molar value.

Columns and labels:
[1] = target: Sigma1; assay: radioligand competition binding
[2] = target: β1 (Homo sapiens, UniProt P08588); assay: biochemical
[3] = target: NOP (Homo sapiens, UniProt P41146); assay: biochemical
[4] = target: DAT (Homo sapiens, UniProt Q01959); assay: biochemical
[5] = target: β3 (Homo sapiens, UniProt P13945); assay: biochemical
[6] = target: DOR (Homo sapiens, UniProt P41143); assay: biochemical
Sequence of DOR (P41143 whole entry): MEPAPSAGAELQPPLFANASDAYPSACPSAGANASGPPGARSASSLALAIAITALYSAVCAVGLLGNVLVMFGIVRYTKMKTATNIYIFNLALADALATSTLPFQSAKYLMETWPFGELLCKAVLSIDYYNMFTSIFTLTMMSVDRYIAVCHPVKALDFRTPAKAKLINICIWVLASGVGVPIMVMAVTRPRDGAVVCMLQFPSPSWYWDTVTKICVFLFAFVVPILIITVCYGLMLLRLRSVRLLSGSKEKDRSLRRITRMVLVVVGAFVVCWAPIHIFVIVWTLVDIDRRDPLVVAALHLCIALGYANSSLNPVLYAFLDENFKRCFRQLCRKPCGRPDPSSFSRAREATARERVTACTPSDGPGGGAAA

[7] = target: D5 (Homo sapiens, UniProt P21918); assay: biochemical
Sequence of D5 (P21918 whole entry): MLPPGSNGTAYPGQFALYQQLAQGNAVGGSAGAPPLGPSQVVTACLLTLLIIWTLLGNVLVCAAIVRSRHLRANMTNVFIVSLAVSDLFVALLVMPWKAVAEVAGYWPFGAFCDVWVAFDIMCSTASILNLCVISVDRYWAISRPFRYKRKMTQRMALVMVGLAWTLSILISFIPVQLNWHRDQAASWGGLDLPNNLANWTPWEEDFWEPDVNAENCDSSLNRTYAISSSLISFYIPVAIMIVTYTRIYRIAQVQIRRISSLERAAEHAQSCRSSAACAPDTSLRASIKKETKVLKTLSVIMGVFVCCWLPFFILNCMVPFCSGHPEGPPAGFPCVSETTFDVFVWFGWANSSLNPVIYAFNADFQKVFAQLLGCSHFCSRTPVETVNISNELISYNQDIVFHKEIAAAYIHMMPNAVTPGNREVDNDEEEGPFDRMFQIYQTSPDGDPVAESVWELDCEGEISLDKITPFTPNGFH

[8] = target: HERG (Homo sapiens, UniProt Q12809); assay: biochemical
Sequence of HERG (Q12809 whole entry): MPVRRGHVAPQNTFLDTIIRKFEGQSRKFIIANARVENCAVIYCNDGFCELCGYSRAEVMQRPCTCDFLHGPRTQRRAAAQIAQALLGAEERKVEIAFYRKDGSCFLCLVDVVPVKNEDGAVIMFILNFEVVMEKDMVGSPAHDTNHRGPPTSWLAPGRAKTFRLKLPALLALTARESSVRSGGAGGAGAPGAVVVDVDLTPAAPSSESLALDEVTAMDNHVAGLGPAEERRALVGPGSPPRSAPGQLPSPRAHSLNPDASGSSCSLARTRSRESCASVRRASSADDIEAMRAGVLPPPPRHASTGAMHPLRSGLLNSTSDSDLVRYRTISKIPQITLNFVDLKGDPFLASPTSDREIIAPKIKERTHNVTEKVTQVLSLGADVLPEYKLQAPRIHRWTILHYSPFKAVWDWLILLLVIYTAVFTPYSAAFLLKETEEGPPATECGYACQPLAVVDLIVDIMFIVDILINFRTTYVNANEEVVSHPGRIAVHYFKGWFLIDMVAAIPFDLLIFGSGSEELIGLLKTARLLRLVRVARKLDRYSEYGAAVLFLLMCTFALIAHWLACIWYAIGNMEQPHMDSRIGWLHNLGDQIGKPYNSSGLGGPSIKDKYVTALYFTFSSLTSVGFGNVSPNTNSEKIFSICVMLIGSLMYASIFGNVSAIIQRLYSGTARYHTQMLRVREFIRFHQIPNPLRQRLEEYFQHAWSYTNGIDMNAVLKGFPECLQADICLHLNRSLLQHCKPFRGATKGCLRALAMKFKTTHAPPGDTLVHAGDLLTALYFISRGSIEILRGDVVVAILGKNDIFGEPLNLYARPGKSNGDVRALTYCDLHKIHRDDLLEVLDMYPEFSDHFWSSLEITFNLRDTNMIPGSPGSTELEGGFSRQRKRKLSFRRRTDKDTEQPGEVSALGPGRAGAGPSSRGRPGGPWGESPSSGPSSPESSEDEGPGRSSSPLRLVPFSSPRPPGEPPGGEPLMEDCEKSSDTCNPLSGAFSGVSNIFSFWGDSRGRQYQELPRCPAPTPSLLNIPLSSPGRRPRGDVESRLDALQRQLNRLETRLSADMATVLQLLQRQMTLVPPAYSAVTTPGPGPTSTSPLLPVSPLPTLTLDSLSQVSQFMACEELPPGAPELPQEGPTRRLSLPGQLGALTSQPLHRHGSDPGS

[9] = target: Sigma2; assay: radioligand competition binding
[10] = target: PBR; assay: radioligand competition binding

Sequence of NOP (P41146 whole entry): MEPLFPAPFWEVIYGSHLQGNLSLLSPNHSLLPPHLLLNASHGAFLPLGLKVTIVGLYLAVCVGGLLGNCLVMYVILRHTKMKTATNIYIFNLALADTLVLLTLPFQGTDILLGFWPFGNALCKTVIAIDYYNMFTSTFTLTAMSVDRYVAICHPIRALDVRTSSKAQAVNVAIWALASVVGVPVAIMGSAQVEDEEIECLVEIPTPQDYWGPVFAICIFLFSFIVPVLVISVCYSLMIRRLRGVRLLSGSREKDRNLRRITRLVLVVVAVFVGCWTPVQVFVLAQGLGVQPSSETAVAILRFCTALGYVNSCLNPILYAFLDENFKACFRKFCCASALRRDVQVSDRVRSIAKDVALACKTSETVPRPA
Sequence of DAT (Q01959 whole entry): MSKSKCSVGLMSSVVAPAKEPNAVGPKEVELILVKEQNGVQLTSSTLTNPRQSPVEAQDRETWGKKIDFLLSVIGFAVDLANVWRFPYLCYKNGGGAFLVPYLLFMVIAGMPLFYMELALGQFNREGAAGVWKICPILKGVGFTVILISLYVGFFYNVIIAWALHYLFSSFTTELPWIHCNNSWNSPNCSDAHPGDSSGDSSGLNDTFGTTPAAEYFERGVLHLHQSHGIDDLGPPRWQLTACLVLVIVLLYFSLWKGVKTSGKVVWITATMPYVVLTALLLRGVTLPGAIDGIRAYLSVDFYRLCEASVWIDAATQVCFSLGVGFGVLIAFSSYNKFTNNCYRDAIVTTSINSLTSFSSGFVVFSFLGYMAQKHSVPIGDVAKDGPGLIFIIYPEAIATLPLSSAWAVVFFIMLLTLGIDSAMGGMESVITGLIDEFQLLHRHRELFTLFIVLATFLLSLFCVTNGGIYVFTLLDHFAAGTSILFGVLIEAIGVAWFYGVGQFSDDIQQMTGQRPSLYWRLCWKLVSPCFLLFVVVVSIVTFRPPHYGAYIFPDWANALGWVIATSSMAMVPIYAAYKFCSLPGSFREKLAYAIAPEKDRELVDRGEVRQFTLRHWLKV
Sequence of β1 (P08588 whole entry): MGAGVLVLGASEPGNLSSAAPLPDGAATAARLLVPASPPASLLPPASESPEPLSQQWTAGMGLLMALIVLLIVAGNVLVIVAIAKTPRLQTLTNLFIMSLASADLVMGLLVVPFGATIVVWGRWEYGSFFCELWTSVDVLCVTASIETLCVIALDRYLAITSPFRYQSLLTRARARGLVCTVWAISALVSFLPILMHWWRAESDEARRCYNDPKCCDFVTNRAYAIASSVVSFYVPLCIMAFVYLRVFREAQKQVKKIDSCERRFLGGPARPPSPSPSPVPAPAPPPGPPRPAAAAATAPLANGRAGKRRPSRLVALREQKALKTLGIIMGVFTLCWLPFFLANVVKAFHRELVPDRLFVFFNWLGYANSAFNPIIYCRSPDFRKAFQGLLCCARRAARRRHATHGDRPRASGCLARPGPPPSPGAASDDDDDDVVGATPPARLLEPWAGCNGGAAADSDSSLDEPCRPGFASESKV
Sequence of β3 (P13945 whole entry): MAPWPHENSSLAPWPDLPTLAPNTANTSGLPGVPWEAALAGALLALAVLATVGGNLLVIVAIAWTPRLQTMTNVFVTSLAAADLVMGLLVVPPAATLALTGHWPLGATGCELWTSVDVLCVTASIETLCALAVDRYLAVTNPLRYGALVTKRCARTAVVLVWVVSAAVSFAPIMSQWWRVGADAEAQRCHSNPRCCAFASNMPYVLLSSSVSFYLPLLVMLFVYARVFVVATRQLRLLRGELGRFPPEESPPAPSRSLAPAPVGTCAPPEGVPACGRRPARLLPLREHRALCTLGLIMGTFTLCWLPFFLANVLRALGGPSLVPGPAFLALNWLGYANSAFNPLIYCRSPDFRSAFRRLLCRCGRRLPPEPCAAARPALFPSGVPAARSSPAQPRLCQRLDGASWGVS

Work on `COc1cc(CCNCc2ccccc2OCCF)c(OC)cc1Br` [compound 1, 2-(4-bromo-2,5-dimethoxyphenyl)-N-(2-(2-fluoroethoxy)benzyl)ethanamine] yielded a pKi [1] of 6.30, a pKi [2] of under 5.00 and a pKi [3] of under 5.00. It also gave a pKi [4] of under 5.00, a pKi [5] of under 5.00 and a pKi [6] of under 5.00. It also gave a pKi [7] of under 5.00, a pKi [8] of under 5.00 and a pKi [9] of 7.29. It also gave a pKi [10] of 6.06.
